Source: patent publication US9809537B2, “Glycosidase inhibitors and uses thereof” (Alectos Therapeutics Inc., priority 2012, dated 2017)

Tests used:
human O-GlcNAcase = target: T1, human O-GlcNAcase (Homo sapiens, UniProt O60502); test: Fluorescence-based assay for KI values for inhibition of O-GlcNAcase activity; assay type: biochemical; conditions: purified human O-GlcNAcase, 4-methylumbelliferyl GlcNAc substrate, pH 7.0, Cheng-Prusoff; read-out: Fluorescence-based hOGA Ki
T1 sequence (O60502 1-916): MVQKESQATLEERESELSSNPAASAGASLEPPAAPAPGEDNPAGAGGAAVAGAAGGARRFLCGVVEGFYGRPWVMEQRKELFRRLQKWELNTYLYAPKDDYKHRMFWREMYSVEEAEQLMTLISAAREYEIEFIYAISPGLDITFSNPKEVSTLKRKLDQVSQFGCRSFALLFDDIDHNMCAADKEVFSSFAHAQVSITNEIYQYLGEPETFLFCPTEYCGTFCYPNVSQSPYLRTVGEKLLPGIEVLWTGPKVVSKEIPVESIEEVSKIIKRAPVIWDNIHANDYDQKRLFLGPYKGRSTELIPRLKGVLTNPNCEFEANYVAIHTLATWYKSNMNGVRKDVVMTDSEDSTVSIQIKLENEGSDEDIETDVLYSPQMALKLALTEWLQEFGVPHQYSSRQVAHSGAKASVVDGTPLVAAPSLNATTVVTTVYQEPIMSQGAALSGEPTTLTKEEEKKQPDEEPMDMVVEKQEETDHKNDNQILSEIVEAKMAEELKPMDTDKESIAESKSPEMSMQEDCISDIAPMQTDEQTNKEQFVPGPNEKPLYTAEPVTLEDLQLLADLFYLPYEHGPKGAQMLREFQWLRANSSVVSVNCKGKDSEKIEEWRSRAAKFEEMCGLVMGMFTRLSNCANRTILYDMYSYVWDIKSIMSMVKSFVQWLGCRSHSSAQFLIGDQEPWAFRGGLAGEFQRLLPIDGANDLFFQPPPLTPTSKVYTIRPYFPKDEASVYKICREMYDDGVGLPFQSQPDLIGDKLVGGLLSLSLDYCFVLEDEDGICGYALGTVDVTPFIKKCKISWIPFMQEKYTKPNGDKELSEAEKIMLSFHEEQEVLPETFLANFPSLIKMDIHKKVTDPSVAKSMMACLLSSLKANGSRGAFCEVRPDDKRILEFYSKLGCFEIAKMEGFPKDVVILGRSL
Protocol: Assay for Determination of KI Values for Inhibition of O-GlcNAcase Activity
Experimental Procedure for Kinetic Analyses:
Enzymatic reactions were carried out in a reaction containing 50 mM NaH2PO4, 100 mM NaCl and 0.1% BSA (pH 7.0) using 2 mM 4-Methylumbelliferyl N-acetyl-β-D-glucosaminide dihydrate (Sigma M2133) dissolved in ddH2O, as a substrate. The amount of purified human O-GlcNAcase enzyme used in the reaction was 0.7 nM. Test compound of varying concentrations was added to the enzyme prior to initiation of the reaction. The reaction was performed at room temperature in a 96-well plate and was initiated with the addition of substrate. The production of fluorescent product was measured every 60 sec for 45 min with a Tecan Infinite M200 plate-reader with excitation at 355 nm and emission detected at […], with 4-Methylumbelliferone (Sigma M1381) used to produce a standard curve. The slope of product production was determined for each concentration of compound tested and plotted, using standard curve fitting algorithms for sigmoidal dose response curves. The values for a four parameter logistic curve fit of the data were determined.
KI values were determined using the Cheng-Prusoff equation; the Km of O-GlcNAcase for substrate was 0.2 mM.

[1] = tested on: O-GlcNAcase in rat PC-12 cells; test: Cell-based ELISA of O-GlcNAcylated protein (RL-2 antibody); conditions: 24 h treatment, O-GlcNAcylated protein level
From the text: Assay for Determination of Cellular Activity for Compounds that Inhibit O-GlcNAcase Activity
Inhibition of O-GlcNAcase, which removes O-GlcNAc from cellular proteins, results in an increase in the level of O-GlcNAcylated protein in cells. An increase in O-GlcNAcylated protein can be measured by an antibody, such as RL-2, that binds to O-GlcNAcylated protein. The amount of O-GlcNAcylated protein:RL2 antibody interaction can be measured by enzyme linked immunosorbant assay (ELISA) procedures.
A variety of tissue culture cell lines, expressing endogenous levels of O-GlcNAcase, can be utilized; examples include rat PC-12, and human U-87, or SK—N—SH cells. […] If desired, the total protein concentration of samples is determined using 20 μL of the sample using the BCA method.
The ELISA portion of the assay is performed in a black Maxisorp 96-well plate that is coated overnight at 4° C. with 100 μL/well of the cell lysate (1:10 dilution of the lysate with PBS containing protease inhibitors, phosphatase inhibitors, and PMSF). […] The detection reaction is incubated for 15 minutes at room temperature and then read with excitation at 530 nm and emission at 590 nm.
The amount of O-GlcNAcylated protein, as detected by the ELISA assay, is plotted for each concentration of test compound using standard curve fitting algorithms for sigmoidal dose response curves. […]

Ki (human O-GlcNAcase): 16 nM | EC50 [1]: 665 nM
SMILES: CC(=O)NC[C@@H]1[C@@H](O)[C@H](O)[C@@H](CO)N1CCCc1ccc(-c2ccccc2)cc1 [Example 3, N-(((2R,3R,4R,5R)-1-(3-([1,1′-biphenyl]-4-yl)propyl)-3,4-dihydroxy-5-(hydroxymethyl)pyrrolidin-2-yl)methyl)acetamide]
